Results from ChEMBL document CHEMBL4480409, “SGC-GAK-1: A Chemical Probe for Cyclin G Associated Kinase (GAK)” (J Med Chem, 2019).

Tests used:
[1] = molecular target: T1, Cyclin-G-associated kinase (Homo sapiens, UniProt O14976); test: Binding affinity to biotinylated human GAK (13 to 338 residues) expressed in Escherichia coli incubated for 1.5 hrs by fluorescent tracer dependent TR-FRET based competitive ligand binding displacement assay
T1 sequence (O14976 whole entry): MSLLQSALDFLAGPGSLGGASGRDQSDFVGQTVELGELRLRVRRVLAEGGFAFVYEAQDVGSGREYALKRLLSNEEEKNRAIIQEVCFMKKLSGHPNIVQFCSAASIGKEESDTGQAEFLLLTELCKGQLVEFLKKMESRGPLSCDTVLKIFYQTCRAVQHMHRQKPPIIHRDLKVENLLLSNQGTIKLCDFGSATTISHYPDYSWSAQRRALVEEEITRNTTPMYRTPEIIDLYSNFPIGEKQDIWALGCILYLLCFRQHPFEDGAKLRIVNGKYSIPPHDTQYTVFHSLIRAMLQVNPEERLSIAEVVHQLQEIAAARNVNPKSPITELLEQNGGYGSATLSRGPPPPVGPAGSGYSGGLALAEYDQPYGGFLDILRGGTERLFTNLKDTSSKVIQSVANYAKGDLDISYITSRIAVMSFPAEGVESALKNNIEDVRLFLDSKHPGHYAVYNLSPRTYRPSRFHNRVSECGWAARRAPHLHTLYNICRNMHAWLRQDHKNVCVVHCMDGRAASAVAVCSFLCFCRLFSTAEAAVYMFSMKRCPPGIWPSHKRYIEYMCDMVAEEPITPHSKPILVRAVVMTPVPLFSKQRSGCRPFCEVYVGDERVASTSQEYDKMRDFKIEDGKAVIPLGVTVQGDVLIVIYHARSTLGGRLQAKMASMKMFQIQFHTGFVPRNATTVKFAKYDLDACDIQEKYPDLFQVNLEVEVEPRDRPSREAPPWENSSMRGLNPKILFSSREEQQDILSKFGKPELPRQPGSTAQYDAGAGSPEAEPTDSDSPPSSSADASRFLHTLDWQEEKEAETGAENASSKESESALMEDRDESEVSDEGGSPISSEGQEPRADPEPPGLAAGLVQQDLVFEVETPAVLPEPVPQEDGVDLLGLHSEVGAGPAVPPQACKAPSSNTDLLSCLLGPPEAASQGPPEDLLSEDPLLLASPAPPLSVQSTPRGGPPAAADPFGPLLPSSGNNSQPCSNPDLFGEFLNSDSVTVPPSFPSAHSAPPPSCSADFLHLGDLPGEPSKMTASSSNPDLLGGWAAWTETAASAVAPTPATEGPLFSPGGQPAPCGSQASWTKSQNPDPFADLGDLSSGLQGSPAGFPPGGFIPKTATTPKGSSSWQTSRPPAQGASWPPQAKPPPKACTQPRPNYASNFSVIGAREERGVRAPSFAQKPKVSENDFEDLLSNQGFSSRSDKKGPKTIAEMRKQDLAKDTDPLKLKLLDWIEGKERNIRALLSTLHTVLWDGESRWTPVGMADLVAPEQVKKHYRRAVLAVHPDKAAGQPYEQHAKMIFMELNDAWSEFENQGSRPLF

[2] = molecular target: T2, Receptor-interacting serine/threonine-protein kinase 2 (Homo sapiens, UniProt O43353); test: Binding affinity to biotinylated human RIPK2 (1 to 310 residues) expressed in Escherichia coli incubated for 1.5 hrs by fluorescent tracer dependent TR-FRET based competitive ligand binding displacement assay
T2 sequence (O43353 whole entry, the tested form may be a part): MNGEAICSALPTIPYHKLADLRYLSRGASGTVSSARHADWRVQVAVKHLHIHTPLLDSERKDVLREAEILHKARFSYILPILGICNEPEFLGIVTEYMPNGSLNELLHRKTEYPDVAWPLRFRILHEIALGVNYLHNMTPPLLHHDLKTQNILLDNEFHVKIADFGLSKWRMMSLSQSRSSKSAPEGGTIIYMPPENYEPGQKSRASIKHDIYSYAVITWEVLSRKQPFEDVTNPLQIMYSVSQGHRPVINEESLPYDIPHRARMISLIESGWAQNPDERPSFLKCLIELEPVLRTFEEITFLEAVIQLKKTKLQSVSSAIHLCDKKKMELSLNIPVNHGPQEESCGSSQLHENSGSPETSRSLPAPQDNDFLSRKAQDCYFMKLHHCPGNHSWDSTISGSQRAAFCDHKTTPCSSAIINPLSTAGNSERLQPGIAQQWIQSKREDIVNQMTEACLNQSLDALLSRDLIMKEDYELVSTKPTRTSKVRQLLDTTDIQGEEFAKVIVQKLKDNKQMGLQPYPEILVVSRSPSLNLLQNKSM

[3] = molecular target: Atypical kinase COQ8A, mitochondrial (Homo sapiens, UniProt Q8NI60); test: Binding affinity to biotinylated full length human ADCK3 expressed in Escherichia coli incubated for 1.5 hrs by fluorescent tracer dependent TR-FRET based competitive ligand binding displacement assay
Atypical kinase COQ8A, mitochondrial, sequence (Q8NI60 whole entry): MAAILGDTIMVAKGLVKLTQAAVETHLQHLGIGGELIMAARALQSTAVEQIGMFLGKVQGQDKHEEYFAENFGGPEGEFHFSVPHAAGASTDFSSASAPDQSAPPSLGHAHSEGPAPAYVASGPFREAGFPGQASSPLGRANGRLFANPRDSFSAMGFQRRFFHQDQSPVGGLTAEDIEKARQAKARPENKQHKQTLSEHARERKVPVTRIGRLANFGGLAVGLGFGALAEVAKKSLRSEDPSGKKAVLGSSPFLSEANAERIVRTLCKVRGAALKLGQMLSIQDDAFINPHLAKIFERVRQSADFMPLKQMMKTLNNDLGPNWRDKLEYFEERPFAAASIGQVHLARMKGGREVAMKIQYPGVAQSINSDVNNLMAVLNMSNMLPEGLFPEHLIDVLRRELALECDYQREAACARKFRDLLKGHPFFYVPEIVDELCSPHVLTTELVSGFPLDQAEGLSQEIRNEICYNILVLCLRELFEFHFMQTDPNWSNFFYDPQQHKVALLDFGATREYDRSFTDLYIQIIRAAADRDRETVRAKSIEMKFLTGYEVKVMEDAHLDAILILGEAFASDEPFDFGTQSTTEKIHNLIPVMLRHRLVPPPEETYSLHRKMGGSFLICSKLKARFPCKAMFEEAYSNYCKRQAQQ

[4] = molecular target: T3, Serine/threonine-protein kinase NLK (Homo sapiens, UniProt Q9UBE8); test: Binding affinity to biotinylated full length human NLK expressed in Escherichia coli incubated for 1.5 hrs by fluorescent tracer dependent TR-FRET based competitive ligand binding displacement assay
T3 sequence (Q9UBE8 whole entry): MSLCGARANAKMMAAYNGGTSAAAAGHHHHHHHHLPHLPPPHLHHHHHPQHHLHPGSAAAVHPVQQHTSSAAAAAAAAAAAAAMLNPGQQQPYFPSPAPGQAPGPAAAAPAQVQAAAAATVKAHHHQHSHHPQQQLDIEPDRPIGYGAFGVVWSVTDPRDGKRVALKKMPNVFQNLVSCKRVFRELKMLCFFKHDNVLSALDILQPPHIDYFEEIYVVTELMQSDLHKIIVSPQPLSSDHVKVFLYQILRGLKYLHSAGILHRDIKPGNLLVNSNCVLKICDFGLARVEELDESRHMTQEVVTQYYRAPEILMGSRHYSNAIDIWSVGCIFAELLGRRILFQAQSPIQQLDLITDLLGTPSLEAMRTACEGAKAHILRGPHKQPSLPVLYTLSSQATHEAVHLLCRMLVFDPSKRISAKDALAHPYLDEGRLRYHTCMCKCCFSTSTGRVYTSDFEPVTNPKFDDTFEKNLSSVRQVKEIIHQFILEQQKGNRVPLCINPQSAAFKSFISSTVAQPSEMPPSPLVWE

[5] = molecular target: BMP-2-inducible protein kinase (Homo sapiens, UniProt Q9NSY1); test: Binding affinity to C-terminal AVI-tagged BMP2K (unknown origin) (38 to 345 residues) expressed in Escherichia coli after 1.5 hrs by TR-FRET assay
BMP-2-inducible protein kinase, sequence (Q9NSY1 whole entry, the tested form may be a part): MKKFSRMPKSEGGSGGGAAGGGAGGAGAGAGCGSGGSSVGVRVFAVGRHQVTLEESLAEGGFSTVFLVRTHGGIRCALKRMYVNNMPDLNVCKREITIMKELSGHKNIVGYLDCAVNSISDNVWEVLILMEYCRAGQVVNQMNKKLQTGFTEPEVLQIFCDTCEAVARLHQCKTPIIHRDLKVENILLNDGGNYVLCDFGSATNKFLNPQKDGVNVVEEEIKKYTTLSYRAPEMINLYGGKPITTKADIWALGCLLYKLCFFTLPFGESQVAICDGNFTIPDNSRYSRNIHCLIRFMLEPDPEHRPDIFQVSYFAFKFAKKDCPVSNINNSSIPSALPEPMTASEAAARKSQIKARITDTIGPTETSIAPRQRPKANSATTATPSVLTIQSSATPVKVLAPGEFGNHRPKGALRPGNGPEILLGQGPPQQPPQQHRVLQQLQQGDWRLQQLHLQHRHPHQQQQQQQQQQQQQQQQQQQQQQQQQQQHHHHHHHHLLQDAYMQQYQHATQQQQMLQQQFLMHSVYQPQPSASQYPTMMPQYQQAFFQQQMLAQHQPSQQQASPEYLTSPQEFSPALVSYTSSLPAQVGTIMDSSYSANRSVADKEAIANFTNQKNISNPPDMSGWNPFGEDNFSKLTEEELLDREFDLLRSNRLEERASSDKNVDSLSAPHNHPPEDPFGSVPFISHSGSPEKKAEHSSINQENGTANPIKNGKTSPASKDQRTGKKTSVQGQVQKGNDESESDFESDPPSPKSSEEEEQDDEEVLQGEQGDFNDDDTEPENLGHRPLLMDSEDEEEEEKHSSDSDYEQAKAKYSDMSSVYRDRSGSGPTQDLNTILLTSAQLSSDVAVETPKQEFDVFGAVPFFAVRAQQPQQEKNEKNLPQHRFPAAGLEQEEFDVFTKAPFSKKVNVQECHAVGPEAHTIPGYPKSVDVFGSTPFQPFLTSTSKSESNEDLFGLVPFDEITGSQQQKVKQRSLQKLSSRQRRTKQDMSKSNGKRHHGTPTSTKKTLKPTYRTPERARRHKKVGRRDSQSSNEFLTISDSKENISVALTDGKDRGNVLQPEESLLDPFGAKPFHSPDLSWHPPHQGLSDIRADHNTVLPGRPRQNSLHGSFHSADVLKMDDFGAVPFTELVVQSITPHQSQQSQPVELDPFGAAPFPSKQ

[6] = molecular target: T2, Receptor-interacting serine/threonine-protein kinase 2; test: Displacement of fluorescent tracer from N-terminus of human RIPK2 expressed in HEK293T cells after 2 hrs by NanoBRET target engagement assay; assay type: cell-based
LNCaP = test: Cytotoxicity against human LNCAP cells after 72 hrs by MTS assay; assay type: functional, cell-based
CWR22R = test: Cytotoxicity against human 22Rv1 cells after 72 hrs by MTS assay; assay type: functional, cell-based; details: 22Rv1, 72 h
[7] = molecular target: T4, Cyclin-G-associated kinase (Homo sapiens) (UniProt O14976)
T4 sequence (whole entry): T1 sequence (O14976 whole entry)
Description: Binding affinity to GAK (unknown origin) assessed as change in melting temperature by DSF assay

[8] = molecular target: AP2-associated protein kinase 1 (Homo sapiens, UniProt Q2M2I8); test: Binding affinity to C-terminal AVI-tagged AAK1 (unknown origin) (31 to 396 residues) expressed in Escherichia coli after 1.5 hrs by TR-FRET assay
AP2-associated protein kinase 1, sequence (Q2M2I8 whole entry, the tested form may be a part): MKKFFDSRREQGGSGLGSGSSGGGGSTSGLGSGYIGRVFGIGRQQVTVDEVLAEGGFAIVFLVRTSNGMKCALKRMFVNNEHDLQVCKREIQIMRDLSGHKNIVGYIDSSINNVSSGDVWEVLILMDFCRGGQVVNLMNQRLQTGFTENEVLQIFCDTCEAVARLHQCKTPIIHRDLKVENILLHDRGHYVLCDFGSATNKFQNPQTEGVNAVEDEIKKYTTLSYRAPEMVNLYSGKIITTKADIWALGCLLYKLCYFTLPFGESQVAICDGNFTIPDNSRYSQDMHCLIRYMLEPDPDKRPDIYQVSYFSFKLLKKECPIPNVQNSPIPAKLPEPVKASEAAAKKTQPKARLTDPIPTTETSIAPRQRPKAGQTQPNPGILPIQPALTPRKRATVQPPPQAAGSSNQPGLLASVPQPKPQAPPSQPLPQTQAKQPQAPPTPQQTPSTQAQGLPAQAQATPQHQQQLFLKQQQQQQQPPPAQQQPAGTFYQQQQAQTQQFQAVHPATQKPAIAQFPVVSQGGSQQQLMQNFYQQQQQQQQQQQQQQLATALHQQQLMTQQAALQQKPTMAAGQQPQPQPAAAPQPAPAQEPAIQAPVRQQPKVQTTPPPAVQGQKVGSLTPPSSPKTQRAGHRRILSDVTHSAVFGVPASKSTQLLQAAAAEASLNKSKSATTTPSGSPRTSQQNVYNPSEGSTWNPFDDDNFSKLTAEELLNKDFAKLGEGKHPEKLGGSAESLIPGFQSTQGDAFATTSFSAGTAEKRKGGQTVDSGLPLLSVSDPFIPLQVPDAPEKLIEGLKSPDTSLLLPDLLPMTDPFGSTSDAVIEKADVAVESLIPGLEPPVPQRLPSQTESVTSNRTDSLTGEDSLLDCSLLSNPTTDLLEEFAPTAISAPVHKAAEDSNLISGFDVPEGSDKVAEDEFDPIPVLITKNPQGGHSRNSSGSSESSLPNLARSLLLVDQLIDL

[9] = molecular target: Serine/threonine-protein kinase 16 (Homo sapiens, UniProt O75716); test: Binding affinity to C-terminal AVI-tagged STK16 (unknown origin) (13 to 305 residues) expressed in Escherichia coli after 1.5 hrs by TR-FRET assay
Serine/threonine-protein kinase 16, sequence (O75716 whole entry, the tested form may be a part): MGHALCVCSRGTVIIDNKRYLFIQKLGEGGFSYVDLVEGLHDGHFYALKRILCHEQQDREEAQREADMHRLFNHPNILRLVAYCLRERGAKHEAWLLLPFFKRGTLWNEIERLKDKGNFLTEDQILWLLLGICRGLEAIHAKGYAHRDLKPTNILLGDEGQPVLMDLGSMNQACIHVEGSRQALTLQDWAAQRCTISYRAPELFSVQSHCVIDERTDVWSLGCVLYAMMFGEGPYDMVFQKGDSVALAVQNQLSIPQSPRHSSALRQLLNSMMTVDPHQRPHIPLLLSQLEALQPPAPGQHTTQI

[10] = molecular target: T1, Cyclin-G-associated kinase
[11] = molecular target: T1, Cyclin-G-associated kinase; test: Displacement of fluorescent tracer from N-terminus of human GAK expressed in HEK293T cells after 2 hrs by NanoBRET target engagement assay; assay type: cell-based
[12] = molecular target: T1, Cyclin-G-associated kinase; test: Binding affinity to GAK (unknown origin)
[13] = molecular target: T5, Interleukin-1 receptor-associated kinase 3 (Homo sapiens, UniProt Q9Y616); test: Binding affinity to human IRAK3 (147 to 596 residues) expressed in bacterial expression system by KINOMEscan assay
T5 sequence (Q9Y616 whole entry): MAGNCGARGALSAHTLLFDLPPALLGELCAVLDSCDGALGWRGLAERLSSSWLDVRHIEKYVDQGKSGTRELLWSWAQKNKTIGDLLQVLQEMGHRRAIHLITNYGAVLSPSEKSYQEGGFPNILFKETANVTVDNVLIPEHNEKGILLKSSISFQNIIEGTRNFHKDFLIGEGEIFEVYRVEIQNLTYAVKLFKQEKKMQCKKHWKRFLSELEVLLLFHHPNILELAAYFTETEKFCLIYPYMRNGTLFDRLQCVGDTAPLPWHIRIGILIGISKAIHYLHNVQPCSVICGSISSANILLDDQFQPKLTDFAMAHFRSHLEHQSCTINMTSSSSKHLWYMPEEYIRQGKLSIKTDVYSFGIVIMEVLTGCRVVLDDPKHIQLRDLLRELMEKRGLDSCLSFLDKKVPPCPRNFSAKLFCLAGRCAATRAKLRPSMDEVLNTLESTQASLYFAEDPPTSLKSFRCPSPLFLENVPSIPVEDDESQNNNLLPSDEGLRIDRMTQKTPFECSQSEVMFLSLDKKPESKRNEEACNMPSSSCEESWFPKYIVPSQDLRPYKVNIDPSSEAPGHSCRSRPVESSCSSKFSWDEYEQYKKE

[14] = molecular target: T4, Cyclin-G-associated kinase (Homo sapiens); test: Binding affinity to biotinylated human GAK (13 to 338 residues) expressed in Escherichia coli at 1 uM incubated for 1.5 hrs by fluorescent tracer dependent TR-FRET based competitive ligand binding displacement assay

Row | Structure (SMILES) | Kd [1] [nM] | Kd [2] [nM] | Kd [3] [nM] | Kd [4] [nM] | Ki [10] [nM] | also measured
1 | COc1ccc2c(Nc3cc(OC)c(OC)c(OC)c3)ccnc2c1 | 17 | 200 | 1200 | 700 |  | 
2 | COc1cc2nccc(Nc3cc(OC)c(OC)c(OC)c3)c2cc1OC | 2.9 | 42 | 250 | 410 |  | 
3 | COc1cc(Nc2ccnc3ccc(Br)cc23)cc(OC)c1OC |  | 110 | 190 | 520 |  | Ki [5]: > 100000 nM; IC50 [6]: 360 nM; IC50 (LNCaP): 650 nM; IC50 (CWR22R): 170 nM; ΔTm [7]: 7.7 °C
4 | COc1cc(Nc2cc(C)nc3ccc(C(F)(F)F)cc23)cc(OC)c1OC |  |  |  |  | 19000 | Ki [8]: > 100000 nM; Ki [5]: > 100000 nM; Ki [9]: > 100000 nM; ΔTm [7]: -0.52 °C
5 | COc1ccc2nccc(Nc3cc(OC)c(OC)c(OC)c3)c2c1 | 21 | 170 | 2000 | 2600 |  | 
6 | Clc1cc2cc(c1)-c1cnn3ccc(nc13)NCCOCCO2 |  |  |  |  | 3.8 | IC50 [11]: 60 nM; IC50 [6]: 11 nM
7 | COc1cc(Nc2ccnc3cc(C#N)ccc23)cc(OC)c1OC | 9.7 | 96 | 66 | 28 |  | 
8 | COc1cc(-c2cnc3c(N4CCOCC4)snc3c2)cc(OC)c1OC |  |  |  |  |  | Kd [12]: 8.9 nM
9 | COc1cc(Nc2ccnc3ccc(I)cc23)cc(OC)c1OC | 7.9 | 69 | 190 | 660 |  | 
10 | COc1cc(Nc2ccnc3ccc(C#N)cc23)cc(OC)c1OC | 3.9 | 88 | 170 | 29 |  | 
11 | CC(C)(C)S(=O)(=O)c1ccc2nccc(Nc3n[nH]c4ccc(F)cc34)c2c1 |  |  |  |  | 220 | 
12 | COc1cc(Nc2ccnc3ccc(C(C)(C)C)cc23)cc(OC)c1OC | 25 | 670 | 740 | 350 |  | 
13 | Cc1[nH]nc(Nc2ncnc3cc(OCCO)c(S(=O)(=O)C(C)(C)C)cc23)c1C |  |  |  |  | 49 | 
14 | COc1cc(Nc2ccnc3ccccc23)cc(OC)c1OC | 59 | 2900 | 4100 | 6200 |  | 
15 | COc1cc(N(C)c2ccnc3ccc(C(F)(F)F)cc23)cc(OC)c1OC |  |  |  |  | 2500 | Ki [8]: 78000 nM; Ki [5]: 95000 nM; Ki [9]: 15000 nM; Kd [13]: 740 nM; IC50 (LNCaP): > 100000 nM; IC50 (CWR22R): > 100000 nM; ΔTm [7]: -0.3 °C
16 | COc1cc(Nc2ccnc3ccc(Cl)cc23)cc(OC)c1OC | 6.7 | 85 | 170 | 650 |  | 
17 | CC(C)(C)S(=O)(=O)c1cc2c(Nc3ccc4scnc4c3)ncnc2cc1OCCO |  |  |  |  | 8200 | IC50 [11]: > 10000 nM; IC50 [6]: 2 nM
18 | COc1cc(Nc2ccnc3ccc(C(F)(F)F)cc23)cc(OC)c1OC |  |  |  | 790 |  | Activity [14]: > 50%
